# From patent publication US7034026B2, “Inhibitors of Akt activity” (Merck & Co., Inc., priority 2001, dated 2006)
# System: PKC (mix of isoforms)
# Experiment: PKC assay (counter screen)
# Assay type: biochemical
# Details: myelin basic protein substrate, 10 μM ATP; read-out: Counter screens IC50 (μM) PKC
# Method: Final assay concentrations were as follows: 0.25 mM EGTA, 0.4 mM CaCl, 20 mM Tris pH 7.5, 10 mM MgCl, 1 mM 2-mercaptoethanol, 0.32 mg/ml phosphatidylserine, 0.032 mg/ml diacylglycerol, 10 μM ^33P-ATP, 70 μg/ml MBP, 10 ng/ml PKC, 0.1 mg/ml BSA.
# Assays are performed using 96 deep well assay plates. In each assay well 10 μl of solvent control or appropriate inhibitor dilution with 5 μl ^33P-ATP (components #5 and #3) were premixed. […] The liquid in the assay wells was thoroughly mixed and the assay reactions incubated for 20 minutes at room temperature. The reactions were stopped by adding 100 mM EDTA (50 μl) and 100 mM sodium pyrophosphate (50 μl) and mixing. Phosphorylated MBP was collected on PVDF membranes in 96 well filter plates and quantitated by scintillation counting.
row,Structure (SMILES),IC50 [µM]
1,"CC(C)(N)c1ccc(-c2nc3ccccc3nc2-c2ccccc2)cc1 [Compound 1, 2-[4-(2-aminoprop-2-yl)phenyl]-3-phenylquinoxaline]",> 80
2,"Nc1ccc(-c2nc3ccccc3nc2-c2ccc(N)cc2)cc1 [Compound 2, 2,3-bis(4-aminophenyl)-quinoxaline]",> 80
